We go through five molecules from paper PMC3827205, “Discovery and Characterization of a Novel Cyclic Peptide That Effectively Inhibits Ephrin Binding to the EphA4 Receptor and Displays Anti-Angiogenesis Activity” (PLoS ONE, 2013).

The target of data set [1] is T1, EphA4 Fc Chimera protein / ephrinA5 (Mus musculus, UniProt Q03137).
T1 construct: using the immobilized EphA4 extracellular domain fused to human Fc; purchased R&D Systems, Minneapolis, MN
In words: ELISA-based binding assay: inhibition of ephrinA5 AP binding to immobilized EphA4 Fc. In kind it is biochemical. As for the experimental part: For Eph receptor binding studies, 50 μl of ephrin A5 (5 μg/ml, kindly provided by Dr. Elena B. Pasquale, Sanford-Burnham Medical Research Institute) was coated onto each well on a 96-well ELISA plate (Corning, #3690) overnight at 4°C. The wells were blocked with 100 μl blocking buffer (Pierce, #37543) for 1 h and then rinsed with PBS. A 1 μg of recombinant mouse EphA4 Fc Chimera protein (R&D Systems, Minneapolis, MN) in EIA buffer (1% BSA, 0.05% Tween 20 in TBS) was then incubated in each well for 1.5 h at room temperature. The EphA4 Fc-coated wells were rinsed with PBS buffer and incubated for 1.5 h with different peptide concentrations and same amount of alkaline phosphatase (AP)-tagged ephrin A5 in a total volume of 50 μl. After the unbound peptide and ephrin had been washed away, bound ephrin-A5 AP was quantified using p-nitrophenylphosphate as a substrate by a Synergy2 reader (BioTek, Winooski, VT) with wavelength of 405 nm. Data were fitted using nonlinear regression. IC50 values were calculated using Prism (GraphPad Software Inc.).

Data set [2] has as its system HUVEC. The data set is described as follows: HUVEC viability assay (CellTiter-Blue). In kind it is cell-based, human. The settings on record: for cytotoxic effects on HUVECs: 48 h, 37°C, CellTiter-Blue, fluorescence 540Ex/600Em, at least three independent experiments. As for the experimental part: The cytotoxic effects of the TYY cyclic peptide were measured at different concentrations by plating 1×10^4 HUVEC cells (ATCC) per well in 96-well plates and determining cell survival. Cells were treated with various concentrations of TYY (10 μM and 20 μM) and incubated in an incubator with a 5% CO2 and 95% humidity atmosphere at 37°C for 24 h and 48 h. After incubation, cell viability was measured using a CellTiter-Blue assay kit (Promega) according to the manufacturer’s instructions. Briefly, 20 μl of CellTiter-Blue reagent was added to 100 μl of culture media and cells were incubated for 2-4 hours at 37°C. Afterward, fluorescence at 540Ex/600Em was measured using a fluorescence plate reader (BioTek, Synergy 2). Each experimental data point was generated from at least three independent experiments.
Figure 3 Effects of the TYY cyclic peptide on viability of HUVEC cells. The HUVECs were treated with the indicated concentrations of the TYY peptide. A 0.1% DMSO control was used because the highest concentration of the DMSO vehicle in the TYY solutions was 0.1%. The cell viability was determined by CellTiter-Blue assays 24 h and 48 h after addition of TYY. Each experimental data point was generated from at least three independent experiments.

The test system of data set [3] is EphA4 Fc. The data set is described as follows: Phage binding assay (phage-displayed peptide on EphA4 Fc). On the set-up: species or system mouse. The settings on record: 4 μg/ml EphA4 Fc coating, room temperature, 2 h, HRP-anti-M13, ABTS, 405 nm, versus BSA control. On the procedure:
A pre-made library consisting of a disulfide-constrained nonapeptide (Ph.D.-C7C) library (New England Biolabs, Beverly, MA) was used for panning on EphA4. Recombinant mouse EphA4 Fc Chimera protein (R&D Systems, Minneapolis, MN) was incubated overnight at 4°C in 96-well ELISA plate wells at concentrations of 10 μg/ml in coating buffer (0.1 M NaHCO3). Wells were blocked for 1 h with blocking buffer (0.1 M NaHCO3, 5 mg/ml BSA, 0.02%NaN3), and rinsed with TBST (0.1% Tween20 in TBS). In round 1 of panning, 5×10^10 plaque-forming units (PFUs) of the phage library in 100 μl TBST were incubated for 1h at room temperature in EphA4 receptor-coated wells. After washing, the remaining bound phage were eluted with 100 μl of 0.2 M glycine-HCl (pH 2.2), and then neutralized by 15 μl 1M Tris-HCl (pH9.1). The entire eluate was used to infect early-log phase ER2738 host bacteria and amplified (4.5 h, 37 °C). The phage were concentrated and stored according to the manufacturer’s recommendations. In rounds 2, 3, and 4, we added 4.9×10^10, 1.81×10^11, 1.95×10^11 PFUs of the amplified phage pool from the previous round, respectively, to an EphA4 Fc-coated well and a BSA coated well. The phages were panned as described for round 1, except eluted phages were tittered prior to amplification to assess enrichment.
Phages binding to EphA4 receptor-coated plates were quantified using an anti-phage antibody conjugated to horseradish peroxidase (M13 phage detection kit, Amersham Pharmacia Biotech, Piscataway, NJ) with 2,2-azino-bis(3-ethylbenzthiazoline-6-sulfonic acid) as substrate. A 50 μl of 4 μg/ml EphA4 Fc or 5 mg/ml BSA (as a negative control) in coating buffer (0.1 M NaHCO3) was incubated overnight at 4°C in 96-well ELISA plate wells. Wells were blocked for 30 minutes with blocking buffer, and rinsed with TBST. A 50 μl of amplified phage was added to each well and incubated at room temperature for 2 h. […] Absorbance of each well was read at 405 nm with a Synergy 2 reader (BioTek, Synergy 2). […]

The test system of data set [4] is EphA4. The note with it: ref [25]; cited from earlier work. From the text:
A promising strategy for anti-angiogenic cancer therapies is to antagonize Eph-ephrin interactions by interfering with the Eph receptor/ephrin system. Several different synthetic peptides and small molecules have been studied for this purpose; the advantage of these artificial ligands is that they can show a much higher selectivity compared to the physiological ephrin ligands.

“And” between values parts separate entries of the source, which are not always exact repeats. Identical values can stand only once. Positions of bridges follow the written chain, without caps; N, C: chain ends. Residues, ends and D or L forms follow the SMILES beside them. No end group written: not given here.

T1 sequence (Q03137 20-547 limits assumed, change not shown): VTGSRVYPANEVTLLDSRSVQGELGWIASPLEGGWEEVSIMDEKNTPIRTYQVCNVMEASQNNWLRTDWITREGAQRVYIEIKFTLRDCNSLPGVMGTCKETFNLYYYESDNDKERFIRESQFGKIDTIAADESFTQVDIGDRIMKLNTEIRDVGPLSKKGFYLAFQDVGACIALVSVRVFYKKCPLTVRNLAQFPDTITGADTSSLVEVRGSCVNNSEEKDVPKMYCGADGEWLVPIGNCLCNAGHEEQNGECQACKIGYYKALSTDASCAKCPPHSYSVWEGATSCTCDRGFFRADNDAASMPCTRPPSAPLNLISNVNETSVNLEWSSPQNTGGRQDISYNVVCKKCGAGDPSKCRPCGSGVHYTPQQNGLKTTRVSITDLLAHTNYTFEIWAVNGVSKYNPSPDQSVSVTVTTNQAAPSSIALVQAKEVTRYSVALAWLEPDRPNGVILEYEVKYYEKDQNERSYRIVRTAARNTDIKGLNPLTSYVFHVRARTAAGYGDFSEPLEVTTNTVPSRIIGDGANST

Regarding `CC(C)C[C@@H]1NC(=O)[C@@H]2CCCN2C(=O)[C@H](Cc2c[nH]c3ccccc23)NC(=O)[C@H](Cc2ccc(O)cc2)NC(=O)[C@H](Cc2ccc(O)cc2)NC(=O)[C@H]([C@@H](C)O)NC(=O)[C@@H](N)CSSC[C@@H](C(N)=O)NC(=O)[C@@H]2CCCN2C1=O` [TYY] (H-CTYYWPLPC-NH2; disulfide 1-9), the “inhibition of EphA4-ephrinA5 binding” value in data set [1] (100 nM peptide, ELISA, 1.5 h, three independent measurements) was 24.8%; in data set [1] (100 μM peptide, ELISA, 1.5 h, three independent measurements), 94.06% and 94%. In addition, the half-inhibitory concentration (IC50) in data set [1] (ELISA, ephrin A5-coated plate, EphA4 Fc, AP-tagged ephrin A5, 1.5 h incubation, p-nitrophenylphosphate, 405 nm, nonlinear regression (Prism), three independent measurements) stood at 11.7 µM. Also, the “cytotoxic effects on HUVECs” value in data set [2] (10 μM) and in data set [2] (20 μM) was “no cytotoxic effects on HUVECs” each time. The “cytotoxic effects in HUVECs” value in data set [2] (concentrations up to 20 μM) is on record as “no cytotoxic effects in the HUVECs”.
Consider “CLMTSQFRC (disulfide 1-9) [cyclic nonapeptide c[…] from M13 phage display library, tested on phage]”, for which the “binding of phage clones to EphA4 Fc” value in data set [3] is on record as “significant binding”.
On to “CSWYWPLPC (disulfide 1-9) [disulfide-constrained cyclic nonapeptide c[…] from M13 phage display library]”, for which the “binding of phage clones to EphA4 Fc” value in data set [3] was “significant binding”. Besides, in data set [1] (50 μM peptide, ELISA, 1.5 h), the “inhibition of ephrin A5 binding to EphA4” value worked out at 40%. In data set [1] (dose dependence), the “inhibition of EphA4 binding with AP-tagged ephrinA5 (in words)” value was “dose-dependent inhibition”.
For the molecule “CWPIKVGWC (disulfide 1-9) [cyclic nonapeptide c[…] from M13 phage display library, tested on phage]”, in data set [3], the “binding of phage clones to EphA4 Fc” value is “significant binding”.
For the molecule “KYLPYWPVLSSL [linear 12-residue KYL peptide (…), positive control, reference compound]”, the “artificial ligand of EphA4” value in data set [4] is listed as “act as artificial ligands”. In addition, in data set [1] (25 μM, positive control, ELISA, 1.5 h, three independent measurements), the “inhibition of EphA4-ephrinA5 binding” value is on record as 92%.
